Drawing on patent US20120302566A1, “INDANYLOXYDIHYDROBENZOFURANYLACETIC ACIDS” (BOEHRINGER INGELHEIM INTERNATIONAL GMBH, priority 2010, published 2012), this text covers EC50 for six compounds.

In test [1] the target is T1, human GPR40 receptor (Homo sapiens, UniProt O14842). Briefly: IP1 accumulation measurements using the IPOne assay system. Conditions: IP1 accumulation (IPOne HTRF), 1 hour stimulation; 1321N1 cells stably expressing human GPR40; read-out: EC50 values on GPR40 determined as described in (B). In kind it is cell-based. The gist of the method: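 1321N1 cells stably expressing human GPR40 were stimulated with compounds for 1 h at 37° in pH 7.4 HEPES buffer with 50 mM final LiCl. IP1 accumulation was then read by HTRF (IP1-d2/anti-IP1 Tb cryptate) after 1 h lysis at room temperature.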

Test [2] has as its target T1, human GPR40 receptor. In words: Cytosolic calcium measurement using the FLIPR system. In kind it is cell-based. Particulars: FLIPR cytosolic Ca2+ peak height; 1321N1 cells stably expressing human GPR40; read-out: EC50 values on GPR40 determined as described in (A). As for the experimental part: (A) Cytosolic calcium measurement using the FLIPR system—1321N1 cells stably expressing human GPR40 receptor (Euroscreen, Belgium) were seeded 24 h before the assay in black clear-bottom collagen-coated 384-well plates in culture medium containing 10% FCS, 1% Na-Pyruvate and 400 μg/ml G418. On the assay day, wells were washed twice with 100 μL Krebs Ringer Buffer (KRB) containing 15 mM sodium hydrogencarbonate and 30 mM Hepes leaving 20 μl rest volume per well. Prior to stimulation the cells were loaded with the Ca^2+-sensitive fluorescent dye from the Calcium4 Assay Kit™ according to the Manufacturer's description (MDS Analytical technologies, Ismaning, Germany) for 80 min at room temperature in the dark, in the presence of 4 mM probenicid. Changes in cytosolic Ca^2+ concentration upon compound addition were monitored using a FLIPR Tetra device (Fluorescence Imaging Plate Reader; MDS Analytical technologies). The peak height of the obtained fluorescence signal was then used to calculate the EC50 values using GraphPad Prism 5 (Graphpad Software Inc, USA) using a sigmoidal curve fitting procedure allowing for a variable hill slope.

SMILES strings stand for the structures. pEC50: −log10 of the molar value.

T1 sequence (O14842 whole entry): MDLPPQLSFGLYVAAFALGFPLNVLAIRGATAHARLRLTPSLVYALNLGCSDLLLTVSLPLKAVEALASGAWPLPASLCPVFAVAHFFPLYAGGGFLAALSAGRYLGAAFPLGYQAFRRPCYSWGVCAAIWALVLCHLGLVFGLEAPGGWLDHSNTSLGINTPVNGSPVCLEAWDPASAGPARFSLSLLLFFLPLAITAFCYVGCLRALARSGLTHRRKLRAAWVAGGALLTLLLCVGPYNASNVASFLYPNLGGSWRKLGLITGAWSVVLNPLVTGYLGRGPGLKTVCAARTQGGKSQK

For `O=C(O)CC1COc2cc(O[C@@H]3CCc4c(C5CCOCC5)cccc43)ccc21` (stereo partly drawn) [Example 12, {6-[(R)-4-(Tetrahydro-pyran-4-yl)-indan-1-yloxy]-2,3-dihydro-benzofuran-3-yl}-acetic acid], the negative logarithm of the EC50 (pEC50) at human GPR40 receptor [1] is 5.57; at human GPR40 receptor [2], 6.34.

`COC(c1cccc2c1CCC2Oc1ccc2c(c1)OCC2CC(=O)O)C(C)(C)C` (stereo not drawn) [Example 13, {6-[4-(1-Methoxy-2,2-dimethyl-propyl)-indan-1-yloxy]-2,3-dihydro-benzofuran-3-yl}-acetic acid]: the pEC50 on human GPR40 receptor [1] was 7.37; at human GPR40 receptor [2], 6.23.

`COC(c1cccc2c1CCC2Oc1ccc2c(c1)OC[C@H]2CC(=O)O)C1CCC1` (stereo partly drawn) [Example 14, {(S)-6-[4-(Cyclobutyl-methoxy-methyl)-indan-1-yloxy]-2,3-dihydro-benzofuran-3-yl}-acetic acid]: the results for the pEC50 at human GPR40 receptor [1] and at human GPR40 receptor [2] were 6.90 and 6.44, respectively.

In the case of `CC1(C)CCCC1c1cccc2c1CC[C@H]2Oc1ccc2c(c1)OCC2CC(=O)O` (stereo partly drawn) [Example 16, {6-[(R)-4-(2,2-Dimethyl-cyclopentyl)-indan-1-yloxy]-2,3-dihydro-benzofuran-3-yl}-acetic acid], the pEC50 on human GPR40 receptor [1] is 7.33; on human GPR40 receptor [2], 5.50.

As to `O=C(O)C[C@@H]1COc2cc(O[C@@H]3CCc4c(OC(F)F)cccc43)ccc21` [Example 17, {(S)-6-[(R)-4-Difluoromethoxy-indan-1-yloxy]-2,3-dihydro-benzofuran-3-yl}-acetic acid], the pEC50 at human GPR40 receptor [1] was 6.86; on human GPR40 receptor [2] it was 6.95.

Regarding `COC1(c2cccc3c2CC[C@H]3Oc2ccc3c(c2)OC[C@H]3CC(=O)O)CCC1` [Example 18, {(S)-6-[(R)-4-(1-Methoxy-cyclobutyl)-indan-1-yloxy]-2,3-dihydro-benzofuran-3-yl}-acetic acid], the results for the pEC50 on human GPR40 receptor [1] and on human GPR40 receptor [2] were 6.79 and 7.68, respectively.
